From patent US12667546B2, “Methods for manipulating cell state transitions in cancer” (AGENCY FOR SCIENCE, TECHNOLOGY AND RESEARCH, priority 2018, dated 2026)

Columns and labels:
Assay type in all cases: cell-based, human
[1] = tested on: NAMEC8; experiment: Cell morphology of treated NAMEC8; settings: bexarotene, TTNPB, SGC-CBP30, UNC0642, A-485 1 μM, LLY-283, GSK591 20 nM, C-IN-1 500 nM
Summary of the method: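 HMLE cells immortalized with hTERT and SV-40 Large T, differentially trypsinized (0.05% trypsin, 1 min) at 50% confluency and replated at ~200 cells/well; wells screened for stably propagating mesenchymal-morphology populations. NAMEC8 is non-clonal, from at least 200 mesenchymal cells; maintained in MEGM.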

[2] = tested on: SUM159 PACR cells; experiment: Morphology and EMT/lineage markers in SUM159 PACR cells
Method: (§1) Cells were rinsed twice in ice-cold PBS. Total RNA was extracted using Trizol (Invitrogen) and column-purified with RNeasy kits (Qiagen). cDNA synthesis was performed with 500 ng of total RNA at 37° C. for 2 h using the SuperScript III First-Strand Synthesis System (Thermo Fisher Scientific), and subsequently diluted 5-fold. mRNA levels were measured with gene-specific primers listed below using the ABI Prism 7900HT Sequence Detection System 2.2 (Applied Biosystems). Results were normalized to GAPDH and analyzed using SDS 2.2 software.

[3] = tested on: BC24.1 and BC33.1; experiment: EMT and lineage markers in patient-derived ER+, luminal-like tumor cell lines
Method: Breast tissue biopsies from cancer patients were obtained from National Cancer Centre Singapore (NCCS) with patients' consent and under an IRB approved protocol (2015/2976). Tissue was digested with 1 mg/ml collagenase IV (Gibco) and 1 mg/ml dispase II (Thermo Fisher Scientific) in F12 media for 2 h while shaking in a 37° C. incubator. Cell suspension was then put through a cell strainer and centrifuged for 10 min at 1500 rpm. Cells were then washed twice and resuspended in media before seeding on irradiated 3T3 feeders as previously described. When confluent, sub-culturing was carried out by first lifting the feeders using 0.15% trypsin for 2 min. […]
as §1
Cells were harvested and scraped from culture dishes in ice-cold PBS. […] Protein concentrations were determined using Coomaisse Blue. […]

[4] = tested on: NAMEC8; experiment: Lipidomic analysis (LC-MS/MS); settings: NAMEC8 bexarotene vs DMSO
Description: Lipids from cell pellets were extracted using butanol:methanol (1:1) as extraction solvent. The extraction solvent included an internal standard mixture consisting of 17:0 LPC (Lysophosphocholine), C14 LPE (Lysophosphoethanolamine), C17 Ceramide, C17 phosphocholine, C17 phosphoserine, C17:0 PG, C8-Ceramide, DMPE (1,2-dimyristoyl-glycero-3-phosphoethanolamine), DMPG (1,2-dimyristoyl-glycero-3-phospho-(1′rac-glycerol), DMPS (dimyristoyl-glycero-phosphoserine), 12:0 DG (1,2-dilauroyl-sn-glycerol), C8 GluCer (D-glucosyl-β1-1′-N-octanoyl-D-erythro-sphingosine), 24:0 SM (N-lignoceroyl-D-erythro-sphingosylphosphorylcholine), 24:1 SM (N-nervonoyl-D-erythro-sphingosylphosphorylcholine), d5-TAG 48:0. All the standards were obtained from Avanti Polar Lipids (Alabaster, AL, USA) except for d5-TAG 48:0 that was obtained from CDN isotopes. All standards were added to a final concentration of 100 ng/ml. 100 μl of the extraction solvent including the standards were added to 1×10^7 cells in a vial containing the cell pellet. The mixture was vortexed for 15 s. […]
Samples were analysed with a liquid chromatography-tandem mass spectrometry (LC-MS/MS) system (Agilent 1290 UHPLC connected to Agilent 6490 QQQ). […] Lipids were quantified in positive multiple reaction monitoring (MRM) mode. […] Data were extracted using MassHunter Quantitative Analysis software (Agilent). […]

C=C(c1ccc(C(=O)O)cc1)c1cc2c(cc1C)C(C)(C)CCC2(C)C [Bexarotene]
cell morphology [1]: dramatic change in morphology from scattered, spindle and fibroblastic-like cells to an epithelial-like morphology | phenotype (morphology, epithelial and luminal markers) [2]: changed from a mesenchymal-like to an epithelial-like phenotype | expression of epithelial/mesenchymal or luminal/basal markers [3]: no dramatic change in the expression of the epithelial/mesenchymal or luminal/basal markers | lipid species content (PI, PG, PC, PE, PS) [4]: dramatically increased
